From patent publication US9695155B2, “Herbicidal substituted pyrimidinyloxy benzene compounds” (E. I. DU PONT DE NEMOURS AND COMPANY, priority 2013, dated 2017)

Experiments:
[1] = test system: barnyardgrass; experiment: Test A preemergence; assay type: in vivo, Echinochloa crus-galli; details: Echinochloa crus-galli, pre-emergence, 240 h, 0 to 100 scale where 0 is no effect and 100 is complete control
Summary of the method: (§1)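 Compounds in non-phytotoxic solvent with surfactant applied as soil spray preemergence, or postemergence to plants 2-10 cm at one- to two-leaf stage, in loam/sand. After approximately 10 days in greenhouse, injury rated visually versus untreated controls, 0 (no effect) to 100 (complete control).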

[2] = test system: wheat; experiment: Test A postemergence; assay type: in vivo, Triticum aestivum; details: Triticum aestivum, post-emergence, 240 h, 0 to 100 scale where 0 is no effect and 100 is complete control
Summary of the method: as §1

[3] = test system: rice; experiment: Test B flooded paddy test; assay type: in vivo, Oryza sativa; details: Oryza sativa; Flood, 250 g ai/ha; 0 to 100 scale where 0 is no effect and 100 is complete control; read-out: Plant response rating, Rice
Summary of the method: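 Plants were grown to the 2-leaf stage, then pots were flooded to 3 cm above the soil and compounds were applied directly into the paddy water. That depth was held throughout, and after 13 to 15 days in the greenhouse injury was rated visually against controls on a 0–100 scale (0 no effect, 100 complete control).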

[4] = test system: blackgrass; experiment: Test C preemergence; assay type: in vivo, Alopecurus myosuroides; details: Alopecurus myosuroides, pre-emergence
Summary of the method: (§2)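 Preemergence: seeds sown in a loam soil–sand blend and sprayed with test chemical in a non-phytotoxic solvent mixture containing surfactant. Postemergence: plants at 2 to 18 cm (1- to 4-leaf stage) in peat-based medium, treated with the same formulation. Greenhouse 13 to 15 days, then visual rating 0 (no effect) to 100 (complete control).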

[5] = test system: wheat, winter; experiment: Test C preemergence; assay type: in vivo, Triticum aestivum; details: Triticum aestivum, pre-emergence
Summary of the method: as §2

[6] = test system: large (Lg) crabgrass; experiment: Test C preemergence; assay type: in vivo, Digitaria sanguinalis; details: Digitaria sanguinalis, pre-emergence
Summary of the method: as §2

[7] = test system: soybean; experiment: Test C preemergence; assay type: in vivo, Glycine max; details: Glycine max, pre-emergence
Summary of the method: as §2

[8] = test system: barnyardgrass; experiment: Test C preemergence; assay type: in vivo, Echinochloa crus-galli; details: Echinochloa crus-galli, pre-emergence
Summary of the method: as §2

[9] = test system: blackgrass; experiment: Test C postemergence; assay type: in vivo, Alopecurus myosuroides; details: Alopecurus myosuroides, post-emergence
Summary of the method: as §2

[10] = test system: giant foxtail; experiment: Test C postemergence; assay type: in vivo, Setaria faberii; details: Setaria faberi, post-emergence
Summary of the method: as §2

[11] = test system: ragweed; experiment: Test C postemergence; assay type: in vivo, Ambrosia elatior; details: Ambrosia artemisiifolia, post-emergence
Summary of the method: as §2

[12] = test system: soybean; experiment: Test C postemergence; assay type: in vivo, Glycine max; details: Glycine max, post-emergence
Summary of the method: as §2

[13] = test system: oilseed rape; experiment: Test C postemergence; assay type: in vivo, Brassica napus; details: Brassica napus, post-emergence
Summary of the method: as §2

In the case of `FC(F)(F)Sc1cnn(-c2ccccc2Oc2ncc(Cl)cn2)c1` [Compound 132, 5-chloro-2-[2-[4-(trifluoromethylthio)-1H-pyrazol-1-yl]phenoxy]pyrimidine], the pest or weed control at 125 g/ha ([1]; 125 g ai/ha, read-out: Plant response rating, Barnyardgrass) is reported as 50%, the pest or weed control at 500 g/ha ([1]; 500 g ai/ha, read-out: Barnyardgrass plant response rating) is reported as 100% and the plant injury at 125 g/ha ([2]; 125 g ai/ha, read-out: Wheat plant response rating) is reported as 0%. For the same compound, the plant injury at 500 g/ha ([2]; 500 g ai/ha, read-out: Plant response rating, Wheat) was 60%, the plant injury at 250 g/ha [3] was 0% and the pest or weed control at 16 g/ha ([4]; 16 g ai/ha, preemergence, scale 0 to 100 (0 no effect, 100 complete control), read-out: Blackgrass plant response rating) was 0%. For the same compound, the pest or weed control at 62 g/ha ([4]; 62 g ai/ha, preemergence, scale 0 (no effect) to 100 (complete control), read-out: Blackgrass plant response rating) was 40%, the pest or weed control at 125 g/ha ([4]; 125 g ai/ha, preemergence, scale 0 (no effect) to 100 (complete control), read-out: Blackgrass plant response rating) was 95% and the pest or weed control at 31 g/ha ([4]; Preemergence, 31 g ai/ha, scale 0 to 100, 0 no effect, 100 complete control, read-out: Plant response rating, Blackgrass) was 5%. For the same compound, the plant injury at 16 g/ha ([5]; 16 g ai/ha, preemergence, scale 0 to 100 (0 no effect, 100 complete control), read-out: Wheat plant response rating) was 0%, the plant injury at 62 g/ha ([5]; 62 g ai/ha, preemergence, scale 0 (no effect) to 100 (complete control), read-out: Wheat plant response rating) was 0% and the plant injury at 125 g/ha ([5]; 125 g ai/ha, preemergence, scale 0 (no effect) to 100 (complete control), read-out: Wheat plant response rating) was 0%. It also gave a plant injury at 31 g/ha ([5]; Preemergence, 31 g ai/ha, scale 0 to 100, 0 no effect, 100 complete control, read-out: Plant response rating, Wheat) of 0%, a pest or weed control at 16 g/ha ([6]; 16 g ai/ha, preemergence, scale 0 to 100 (0 no effect, 100 complete control), read-out: Crabgrass, Large plant response rating) of 65% and a pest or weed control at 62 g/ha ([6]; 62 g ai/ha, preemergence, scale 0 (no effect) to 100 (complete control), read-out: Crabgrass, Large plant response rating) of 98%. For the same compound, the pest or weed control at 125 g/ha ([6]; 125 g ai/ha, preemergence, scale 0 (no effect) to 100 (complete control), read-out: Crabgrass, Large plant response rating) was 100%, the pest or weed control at 31 g/ha ([6]; Preemergence, 31 g ai/ha, scale 0 to 100, 0 no effect, 100 complete control, read-out: Plant response rating, Crabgrass, Large) was 85% and the plant injury at 16 g/ha ([7]; 16 g ai/ha, preemergence, scale 0 to 100 (0 no effect, 100 complete control), read-out: Soybean plant response rating) was 0%. It also gave a plant injury at 62 g/ha ([7]; 62 g ai/ha, preemergence, scale 0 (no effect) to 100 (complete control), read-out: Soybean plant response rating) of 5%, a plant injury at 125 g/ha ([7]; 125 g ai/ha, preemergence, scale 0 (no effect) to 100 (complete control), read-out: Soybean plant response rating) of 55% and a plant injury at 31 g/ha ([7]; Preemergence, 31 g ai/ha, scale 0 to 100, 0 no effect, 100 complete control, read-out: Plant response rating, Soybean) of 0%. The pest or weed control at 16 g/ha ([8]; 16 g ai/ha, preemergence, scale 0 to 100 (0 no effect, 100 complete control), read-out: Barnyardgrass plant response rating) was 0%, the pest or weed control at 62 g/ha ([8]; 62 g ai/ha, preemergence, scale 0 (no effect) to 100 (complete control), read-out: Barnyardgrass plant response rating) was 10% and the pest or weed control at 125 g/ha ([8]; 125 g ai/ha, preemergence, scale 0 (no effect) to 100 (complete control), read-out: Barnyardgrass plant response rating) was 75%. For the same compound, the pest or weed control at 31 g/ha ([8]; Preemergence, 31 g ai/ha, scale 0 to 100, 0 no effect, 100 complete control, read-out: Plant response rating, Barnyardgrass) was 0%, the pest or weed control at 16 g/ha ([9]; 16 g ai/ha, postemergence, 0 is no effect, 100 is complete control, read-out: Plant response rating (0 to 100), Blackgrass) was 5% and the pest or weed control at 125 g/ha ([9]; 125 g ai/ha, postemergence, visual rating, scale 0 to 100 (0 no effect, 100 complete control), read-out: Plant response rating, Blackgrass) was 5%. It also gave a pest or weed control at 31 g/ha ([9]; Postemergence, 31 g ai/ha, scale 0 to 100 (0 no effect, 100 complete control), 13 to 15 days, read-out: Plant response rating, Blackgrass) of 5%, a pest or weed control at 62 g/ha ([9]; Postemergence, 62 g ai/ha, scale 0 to 100 (0 no effect, 100 complete control), read-out: Plant response rating, Blackgrass) of 10% and a pest or weed control at 16 g/ha ([10]; 16 g ai/ha, postemergence, 0 is no effect, 100 is complete control, read-out: Plant response rating (0 to 100), Foxtail, Giant) of 0%. For the same compound, the pest or weed control at 125 g/ha ([10]; 125 g ai/ha, postemergence, visual rating, scale 0 to 100 (0 no effect, 100 complete control), read-out: Plant response rating, Foxtail, Giant) was 10%, the pest or weed control at 62 g/ha ([10]; Postemergence, 62 g ai/ha, scale 0 to 100 (0 no effect, 100 complete control), read-out: Plant response rating, Foxtail, Giant) was 5% and the pest or weed control at 16 g/ha ([11]; 16 g ai/ha, postemergence, 0 is no effect, 100 is complete control, read-out: Plant response rating (0 to 100), Ragweed) was 0%. The pest or weed control at 125 g/ha ([11]; 125 g ai/ha, postemergence, visual rating, scale 0 to 100 (0 no effect, 100 complete control), read-out: Plant response rating, Ragweed) was 35%, the pest or weed control at 62 g/ha ([11]; Postemergence, 62 g ai/ha, scale 0 to 100 (0 no effect, 100 complete control), read-out: Plant response rating, Ragweed) was 10% and the Soybean plant response rating (crop injury, 0-100 scale) at 16 g/ha ([12]; 16 g ai/ha, postemergence, 0 is no effect, 100 is complete control) was 20%. For the same compound, the Soybean plant response rating (crop injury, 0-100 scale) at 125 g/ha ([12]; 125 g ai/ha, postemergence, visual rating, scale 0 to 100 (0 no effect, 100 complete control), read-out: Plant response rating, Soybean) was 50%, the Soybean plant response rating (crop injury, 0-100 scale) at 62 g/ha ([12]; Postemergence, 62 g ai/ha, scale 0 to 100 (0 no effect, 100 complete control)) was 35% and the plant injury at 16 g/ha ([13]; 16 g ai/ha, postemergence, 0 is no effect, 100 is complete control, read-out: Plant response rating (0 to 100), Oilseed Rape) was 40%. For the same compound, the plant injury at 125 g/ha ([13]; 125 g ai/ha, postemergence, visual rating, scale 0 to 100 (0 no effect, 100 complete control), read-out: Plant response rating, Oilseed Rape) was 95% and the plant injury at 62 g/ha ([13]; Postemergence, 62 g ai/ha, scale 0 to 100 (0 no effect, 100 complete control), read-out: Plant response rating, Oilseed Rape) was 70%.
